Measured values from ChEMBL document CHEMBL3301472, “MMV Malaria Box HIV and cytotoxicity screening”.

Experiments:
Assay type in all cases: toxicity, cell-based
[1] = MMV: MTT Cytotoxicity Assay Day 7 pi of Assay #10 (NO washout), U87-CD4-CCR5 cells, % cell death @ 5mM compound; details: human, u87-cd4-ccr5, 5000 µM
[2] = MMV: MTT Cytotoxicity Assay Day 7 pi of Assay #6 (compound washed out Day 1 pi), U87-CD4-CCR5 cells, % cell death @ 5mM compound; details: human, u87-cd4-ccr5, 5000 µM
[3] = MMV: MTT Cytotoxicity Assay Day 7 pi of Assay #11 (NO washout), U87-CD4-CXCR4 cells, % cell death @ 5mM compound; details: human, u87-cd4-cxcr4, 5000 µM
[4] = MMV: MTT Cytotoxicity Assay Day 3 pi, U87-CD4-CXCR4 cells, % cell death @ 5mM compound; details: human, u87-cd4-cxcr4, 5000 µM
[5] = MMV: MTT Cytotoxicity Assay Day 7 pi of Assay #7 (compound washed out Day 1 pi), U87-CD4-CXCR4 cells, % cell death @ 5mM compound; details: human, u87-cd4-cxcr4, 5000 µM
[6] = MMV: MTT Cytotoxicity Assay Day 3 pi, U87-CD4-CCR5 cells, % cell death @ 5mM compound; details: human, u87-cd4-ccr5, 5000 µM

With `Cc1ccc(N2C3c4ccccc4N(S(=O)(=O)c4ccc(C)cc4)C2c2ccccc2N3S(=O)(=O)c2ccc(C)cc2)cc1` the “% Cell Death” value [1] was 8, the “% Cell Death” value [2] was 0 and the “% Cell Death” value [3] was -39. The “% Cell Death” value [4] was 37, the “% Cell Death” value [5] was -17 and the “% Cell Death” value [6] was 26.
With `COc1ccc(CNC2CCN(c3ccc(NC(=O)c4cccc(Cl)c4)cc3)CC2)cc1OC` the “% Cell Death” value [1] was 11, the “% Cell Death” value [2] was 28 and the “% Cell Death” value [3] was -37. The “% Cell Death” value [4] was -2, the “% Cell Death” value [5] was -21 and the “% Cell Death” value [6] was -8.
With `CCOc1ccccc1CN1CCc2nc3cc(C(C)(C)C)nn3c(O)c2C1` the “% Cell Death” value [1] was 95, the “% Cell Death” value [2] was -7 and the “% Cell Death” value [3] was 98. For the same compound, the “% Cell Death” value [4] was 21, the “% Cell Death” value [5] was 3 and the “% Cell Death” value [6] was 100.
For `CC(C)=CCN1CCC(C(=O)Nc2ccc(-c3nc4ccccc4[nH]3)cc2)CC1`, the “% Cell Death” value [1] was 11, the “% Cell Death” value [2] was 6 and the “% Cell Death” value [3] was -26. The “% Cell Death” value [4] was 22, the “% Cell Death” value [5] was 4 and the “% Cell Death” value [6] was 10.
With `COc1ccc2nc(N)nc(C)c2c1` the “% Cell Death” value [1] was 17, the “% Cell Death” value [2] was -35 and the “% Cell Death” value [3] was 15. For the same compound, the “% Cell Death” value [4] was 34, the “% Cell Death” value [5] was -3 and the “% Cell Death” value [6] was 15.
In the case of `COc1ccc(C2C(C(=O)Nc3cccc(OC)c3)c3ccccc3C(=O)N2C2CCCCC2)cc1` (configuration not stated), the “% Cell Death” value [1] is reported as -8, the “% Cell Death” value [2] is reported as 18 and the “% Cell Death” value [3] is reported as 37. The “% Cell Death” value [4] was 15, the “% Cell Death” value [5] was 22 and the “% Cell Death” value [6] was -65.
With `COc1ccc(-c2nonc2NC(=O)c2cccc(C)c2)cc1OC` the “% Cell Death” value [1] was -7, the “% Cell Death” value [2] was -21 and the “% Cell Death” value [3] was -3. For the same compound, the “% Cell Death” value [4] was 11, the “% Cell Death” value [5] was -11 and the “% Cell Death” value [6] was 13.
For `CCOC(=O)c1cnc2ccc(CC)cc2c1O`, the “% Cell Death” value [1] was 21, the “% Cell Death” value [2] was 13 and the “% Cell Death” value [3] was 42. The “% Cell Death” value [4] was 22, the “% Cell Death” value [5] was -25 and the “% Cell Death” value [6] was 1.
For `CC1CCN(Cc2c(O)ccc3cc(-c4nc5ccccc5s4)c(=O)oc23)CC1`, the “% Cell Death” value [1] was 30, the “% Cell Death” value [2] was 16 and the “% Cell Death” value [3] was 9. The “% Cell Death” value [4] was 33, the “% Cell Death” value [5] was -13 and the “% Cell Death” value [6] was 12.
For `C=C(C)CCC(C)N1CCC(N2CCC(C(=O)NCCc3ccccc3)CC2)CC1` (configuration not stated), the “% Cell Death” value [1] was 11, the “% Cell Death” value [2] was 23 and the “% Cell Death” value [3] was -11. The “% Cell Death” value [4] was 3, the “% Cell Death” value [5] was -27 and the “% Cell Death” value [6] was -11.
For `CCOc1cc(Cl)c(C(C)NC(=O)c2cccc(OC)c2)cc1OCC` (configuration not stated), the “% Cell Death” value [1] was 24, the “% Cell Death” value [2] was 10 and the “% Cell Death” value [3] was 28. For the same compound, the “% Cell Death” value [4] was 37, the “% Cell Death” value [5] was 16 and the “% Cell Death” value [6] was -1.
In the case of `CCOc1ccc2nc(C)cc(Nc3ccc(N(C)C)cc3)c2c1.Cl`, the “% Cell Death” value [1] is reported as 23, the “% Cell Death” value [2] is reported as -13 and the “% Cell Death” value [3] is reported as 0. The “% Cell Death” value [4] was 57, the “% Cell Death” value [5] was 4 and the “% Cell Death” value [6] was -27.
